Measured values from paper PMC10523091, “Stereo/regio-selective access to substituted 3-hydroxy-oxindoles with anti-proliferative assessment and in silico validation” (RSC Advances, 2023).
Like-named read-outs stand apart in the source and are kept apart here.

How the values were obtained:
1205Lu = test: MTS cell viability assay, 1205Lu; type: cell-based, human; conditions: for SI 1205Lu: SI = (IC50 for normal cell line FHC)/(IC50 for 1205Lu)
Protocol: (§1) The newly synthesized compounds were subjected to assessment for their potential to inhibit the proliferation of various cancer cell lines including colorectal carcinoma (HCT116), ovarian cancer (OVCAR 10), and human metastatic melanoma (1205Lu), and non-cancerous fetal human cells (FHC). […] In order to ascertain whether compound 4j is selectively cytotoxic or anti-proliferative to cancer cells, it was tested for non-cancerous fetal human cells (FHC).
(§2) HCT116, OVCAR 10, 1205Lu, and FHC cell lines were procured from American Type Culture Collection (ATCC, Manassas, VA, USA). All the cells were grown based on the recommendations by ATCC at 37 °C in a humidified atmosphere with CO2. Stock solutions of compounds were made up and delivered to cells in DMSO.
(§3) The cell viability assay was performed as described earlier[27] HCT116, OVCAR 10, 1205Lu, and FHC adherent cell lines were seeded in 96-well plate at a density of 5 × 10^3 cells per well. Next day, the cells were treated with the respective compounds at different doses for 48 h in triplicates. At the end of the treatment duration, the media were removed and fresh media were added containing 20 μL of [3-(4,5-dimethylthiazol-2-yl)-5-(3-carboxymethoxyphenyl)-2-(4-sulfophenyl)-2H-tetrazolium] (MTS) reagent per well (Promega, WI, USA). The optical densities of the solubilized formazan crystals were read with a 96-well multi-scanner (Dynex Technologies, MRX Revelation; Chantilly, VA, USA) at 490 nm and 630 nm, and the normalized percent viability was calculated. The IC50 values were calculated using non-linear regression (curve fit).

OVCAR 10 = test: MTS cell viability assay, OVCAR 10; type: cell-based; conditions: for SI OVCAR10: SI = (IC50 for normal cell line FHC)/(IC50 for OVCAR10)
Protocol: as §1, §2, §3

HCT116 = test: MTS cell viability assay, HCT116; type: cell-based; conditions: for SI HCT116: SI = (IC50 for normal cell line FHC)/(IC50 for HCT116)
Protocol: as §1, §2, §3

FHC = test: MTS cell viability assay, non-cancerous FHC; type: cell-based; conditions: 48 h treatment, non-cancerous fetal human cells, read-out: IC50 (μM) ± SD FHC
Protocol: as §1, §2, §3

HCT-116 cells [1] = test: Annexin V/7-AAD apoptosis assay; type: cell-based; conditions: 10 μM
Protocol: (§4) We further carried out apoptosis experiments utilizing the caspase-3/7 7-AAD and Annexin V/7-AAD assays to evaluate the mode of cell death.
(§5) The apoptosis assay using Muse Annexin V/7-AAD and Caspase 3/7 7-AAD assay kit (EMD Millipore, Darmstadt, Germany) was performed following manufacturer's protocol as described earlier.[28] Briefly, the cells were seeded in 6-well plate at a density of 1 × 10^5 cells per well. After 24 h incubation, the cells were treated with 10 μM of compound 4j. The cells were incubated for 24 and 48 h. At the end of the treatment period, the cells were harvested using enzyme free cell dissociation buffer. The samples were treated with the respective dyes based on the manufacturer's protocol. The samples were further analysed in Muse Cell Analyzer (Merck Millipore, Darmstadt, Germany).

HCT-116 cells [2] = test: Caspase 3/7 7-AAD apoptosis assay; type: cell-based; conditions: 10 μM
Protocol: as §4, §5

[3] = 1205Lu, MTS assay, 48 h treatment, human metastatic melanoma, read-out: IC50 (μM) ± SD 1205Lu
[4] = MTS assay, 48 h treatment, ovarian cancer, read-out: IC50 (μM) ± SD OVCAR 10
[5] = Homo sapiens, HCT-116, MTS assay, 48 h treatment, colorectal carcinoma, read-out: IC50 (μM) ± SD HCT116
[6] = Homo sapiens, 1205Lu, repeated in docking table, unit inferred, read-out: IC50 1205Lu
[7] = repeated in docking table, unit inferred, read-out: IC50 OVCAR10
[8] = Homo sapiens, HCT-116, repeated in docking table, unit inferred, read-out: IC50 HCT116

Row | melting point | IC50 (OVCAR 10; [4]) | IC50 (HCT116; [5]) | Compound | IC50 (1205Lu; [3]) | IC50 (FHC; FHC) | further results
1 | 154 to 156 °C | 112 ± 21.3 µM | 105 ± 23.3 µM | O=C1Nc2ccccc2C1(O)CN1CCCCC1 (stereo not shown) [Compound 4n, 3-Hydroxy-3-(piperidin-1-ylmethyl)indolin-2-one] | 109 ± 24.7 µM | 96.8 ± 18.5 µM | –
2 | – | 92.3 ± 18.2 µM | 95.4 ± 9.66 µM | O=C1Nc2ccccc2C1(O)CN1CCOCC1 (stereo not shown) [Compound 4m, 3-Hydroxy-3-(morpholinomethyl)indolin-2-one] | 99.7 ± 11.5 µM | 89.4 ± 14.6 µM | –
3 | 121 to 124 °C | 81.5 ± 12.5 µM | 93.4 ± 19.3 µM | O=C1N(Cc2ccccc2)c2ccc(Cl)cc2C1(O)CN1CCCC1 (stereo not shown) [Compound 4i, 1-Benzyl-5-chloro-3-hydroxy-3-(pyrrolidin-1-ylmethyl)indolin-2-one] | 96.4 ± 18.8 µM | 96.5 ± 22.2 µM | –
4 | – | 22.4 ± 4.1 µM | 22.3 ± 1.7 µM | O=c1[nH]cc(F)c(=O)[nH]1 [Compound 5-FU, 5-fluorouracil, reference compound] | 15.4 ± 2.9 µM | 21.3 ± 4.2 µM | IC50 (1205Lu; [6]): 15.4 µM; SI 1205Lu (1205Lu): 1.38; SI OVCAR10 (OVCAR 10): 0.95; IC50 (OVCAR 10; [7]): 22.4 µM; IC50 (HCT116; [8]): 22.3 µM; SI HCT116 (HCT116): 0.95
5 | – | 94.3 ± 18 µM | 91.5 ± 26.9 µM | O=C1N(Cc2ccccc2)c2c(Br)cc(Br)cc2C1(O)CN1CCCC1 (stereo not shown) [Compound 4l] | 91.6 ± 18.3 µM | 94.8 ± 15.3 µM | –
6 | – | 116 ± 11.8 µM | 102 ± 18.7 µM | O=C1Nc2ccccc2C1(O)CN1CCCC1 (stereo not shown) [Compound 4o, 3-Hydroxy-3-(pyrrolidin-1-ylmethyl)indolin-2-one] | 130 ± 14 µM | 95.7 ± 13 µM | –
7 | 170 to 172 °C | 91.2 ± 18.7 µM | 110 ± 24.4 µM | O=C1N(Cc2ccccc2)c2c(Br)cc(Br)cc2C1(O)CN1CCCCC1 (stereo not shown) [Compound 4k, 1-Benzyl-5,7-dibromo-3-hydroxy-3-(piperidin-1ylmethyl)indolin-2-one] | 89.9 ± 16.8 µM | 88.6 ± 20.3 µM | IC50 (1205Lu; [6]): 89.9 µM; IC50 (OVCAR 10; [7]): 91.2 µM; IC50 (HCT116; [8]): 110 µM

Continued, compound first:

Row | Compound | melting point | IC50 (OVCAR 10; [4]) | IC50 (HCT116; [5]) | IC50 (1205Lu; [3]) | IC50 (FHC; FHC) | further results
8 | O=C1N(Cc2ccccc2)c2ccc(Cl)cc2C1(O)CN1CCOCC1 (stereo not shown) [Compound 4g, 1-Benzyl-5-chloro-3-hydroxy-3-(morpholinomethyl)indolin-2-one] | 191 to 193 °C | 112 ± 11.7 µM | 121 ± 17.1 µM | 125 ± 19.8 µM | 121 ± 21.2 µM | –
9 | O=C1N(Cc2ccccc2)c2ccccc2C1(O)CN1CCCCC1 (stereo not shown) [Compound 4b, 1-Benzyl-3-hydroxy-3-(piperidin-1-ylmethyl)indolin-2-one] | – | 69.2 ± 16.2 µM | 85.2 ± 15.3 µM | 65.3 ± 15.3 µM | 63.5 ± 22.2 µM | –
10 | O=C1N(Cc2ccccc2)c2ccc(Br)cc2C1(O)CN1CCOCC1 (stereo not shown) [Compound 4d, 1-Benzyl-5-bromo-3-hydroxy-3-(morpholinomethyl)indolin-2-one] | – | 87.9 ± 13 µM | 84.1 ± 19.4 µM | 81.2 ± 15.1 µM | 73.2 ± 19.6 µM | –
11 | O=C1N(Cc2ccccc2)c2c(Br)cc(Br)cc2C1(O)CN1CCOCC1 (stereo not shown) [Compound 4j, 1-Benzyl-5,7-dibromo-3-hydroxy-3-(morpholinomethyl)indolin-2-one] | – | 8.56 ± 1.1 µM | 9.63 ± 1.3 µM | 12.2 ± 1.7 µM | 20.6 ± 3.1 µM | apoptotic cells, Annexin V/7-AAD (HCT-116 cells [1]; 24 h): 19.5%; apoptotic cells, Annexin V/7-AAD (HCT-116 cells [1]; 48 h): 46.15%; IC50 (1205Lu; [6]): 12.2 µM; SI 1205Lu (1205Lu): 1.68; SI OVCAR10 (OVCAR 10): 2.40; IC50 (OVCAR 10; [7]): 8.56 µM; apoptotic cell population, Caspase 3/7 7-AAD (HCT-116 cells [2]; 24 h): 21.5%; apoptotic cell population, Caspase 3/7 7-AAD (HCT-116 cells [2]; 48 h): 57.9%; IC50 (HCT116; [8]): 9.63 µM; SI HCT116 (HCT116): 2.12
12 | O=C1N(Cc2ccccc2)c2ccc(Br)cc2C1(O)CN1CCCC1 (stereo not shown) [Compound 4f, 1-Benzyl-5-bromo-3-hydroxy-3-(pyrrolidin-1-ylmethyl)indolin-2-one] | 144 to 146 °C | 88.5 ± 18.9 µM | 85.3 ± 16 µM | 85.6 ± 13.2 µM | 81.3 ± 15.6 µM | –
13 | O=C1N(Cc2ccccc2)c2ccccc2C1(O)CN1CCOCC1 (stereo not shown) [Compound 4a, 1-Benzyl-3-hydroxy-3-(morpholinomethyl)indolin-2-one] | – | 120 ± 15.4 µM | 104 ± 25 µM | 111 ± 18.9 µM | 122 ± 13.2 µM | –
14 | O=C1N(Cc2ccccc2)c2ccc(Br)cc2C1(O)CN1CCCCC1 (stereo not shown) [Compound 4e, 1-Benzyl-5-bromo-3-hydroxy-3-(piperidin-1-ylmethyl)indolin-2-one] | 189 to 191 °C | 93.1 ± 15.6 µM | 92.2 ± 17.2 µM | 98 ± 13.2 µM | 88.3 ± 16.9 µM | –
15 | N.N.[Cl][Pt][Cl] [Cisplatin, cisplatin, reference compound] | – | 18.2 ± 2.5 µM | – | – | – | IC50 (1205Lu; MTS assay, 48 h treatment, human metastatic melanoma, read-out: IC50 (μM) ± SD 1205Lu): 19 ± 1.5 µM; SI 1205Lu (1205Lu): 1.3; SI OVCAR10 (OVCAR 10): 1.37; IC50 (HCT116; MTS assay, 48 h treatment, colorectal carcinoma, read-out: IC50 (μM) ± SD HCT116): 12.1 ± 2.5 µM; SI HCT116 (HCT116): 2.07; IC50 (FHC): 25.1 ± 3.2 µM
16 | O=C1N(Cc2ccccc2)c2ccccc2C1(O)CN1CCCC1 (stereo not shown) [Compound 4c, 1-Benzyl-3-hydroxy-3-(pyrrolidin-1-ylmethyl)indolin-2-one] | 169 to 171 °C | 61.2 ± 13.2 µM | 65.9 ± 16.7 µM | 78.2 ± 24 µM | 76.3 ± 14.5 µM | –
17 | O=C1N(Cc2ccccc2)c2ccc(Cl)cc2C1(O)CN1CCCCC1 (stereo not shown) [Compound 4h] | – | 130 ± 17.2 µM | 117 ± 19.6 µM | 110 ± 18.4 µM | 106 ± 17.2 µM | –
